# Reference: US20200163984A1, “USE OF ISOVALERYL SPIRAMYCIN I, II AND/OR III IN MANUFACTURING MEDICAMENT FOR TREATING AND/OR PREVENTING TUMOR, AND MEDICAMENT” (SHENYANG FUYANG PHARMACEUTICAL TECHNOLOGY CO., LTD., priority 2017, published 2020)
# Tests used:
# [1] = test system: transplanted tumor of human renal clear cell adenocarcinoma cell 786-O; assay: 786-O transplanted tumor in nude mice
# Protocol: (§1) 786-O cells in a logarithmic growth phase were taken and subjected to a trypan blue exclusion experiment showing that the cell viability was more than 95%, then the cells were subjected to trypsinization, centrifugation, and supernatant removal. Then cell concentration was adjusted to 1×10^7/ml with matrigel, then each nude mouse was inoculated subcutaneously with 0.2 ml of cells at its right armpit and recorded as the first day of inoculation. When the tumor grows to be greater than or equal to 100 mm^3, the mice were randomly divided into 11 groups with 6 mice in each group: a model group, a cyclophosphamide group, isovaleryl spiramycin I groups with doses of 25, 50 and 100 mg/kg, isovaleryl spiramycin II groups with doses of 25, 50 and 100 mg/kg, and isovaleryl spiramycin III groups with doses of 25, 50 and 100 mg/kg. Each group was continuously administered intragastrically for 30 days with a dose of 20 ml/kg. The mice were sacrificed the next day after drug withdrawal and the indicators were tested. The long diameter and short diameter of the tumor, and the body weight of each mouse were recorded every 3 days from drug administration to nude mouse sacrifice.
# (§2) The body weight of the nude mice and the long diameter (a) and short diameter (b) of the transplanted tumor were measured every 3 days, and the tumor volume (v), relative tumor volume (RTV) and relative tumor proliferation rate (T/C) are calculated respectively according to the following formulas, wherein V=a×b^2/2; RTV=V/V0 (V0 is the tumor volume before administration, V is the tumor volume before sacrifice), and T/C (%)=treatment group RTV/model control group RTV×100%.
# (§3) Each mouse was weighed and sacrificed. After the tumor was completely stripped off from the body of the mouse, the non-tumor tissues such as blood stains and fat were removed to weigh the tumor and calculate the tumor growth inhibition rate. The average tumor weight of each group of mice is used as an indicator of efficacy. Tumor growth inhibition rate (%)=(1−the average tumor weight of the treatment group/the average tumor weight of the model group)×100%.
# [2] = test system: transplanted tumor of human thyroid cancer cell TPC-1; assay: TPC-1 transplanted tumor in nude mice
# Protocol: as §1, with “Then” for “786-O cells in a logarithmic growth phase were taken and subjected to a trypan blue exclusion experiment showing that the cell viability was more than 95%, then the cells were subjected to trypsinization, centrifugation, and supernatant removal. Then”, “group:” for “group: a model group, a cyclophosphamide group,”
# as §2, §3
# [3] = Thymus index and spleen index of Lewis lung cancer tumor-bearing mice; details: for Spleen Index (%) / Thymus Index (%): n = 6
# Protocol: In the Lewis lung cancer model, the mice inoculated with the tumor were randomly divided into groups with 10 mice in each group the next day of inoculation. The groups included: a model control group, a positive drug cyclophosphamide control group (CTX, 30 mg/kg), isovaleryl spiramycin I groups with doses of 13, 26 and 52 mg/kg; isovaleryl spiramycin II groups with doses of 13, 26 and 52 mg/kg; isovaleryl spiramycin III groups with doses of 13, 26 and 52 mg/kg. Each group was continuously administered intragastrically for 15 days with a dose of 20 ml/kg.
# [4] = 786-O, high dose (100 mg/kg in method) i.g. 30 days
# [5] = 786-O, low dose (25 mg/kg in method) i.g. 30 days
# [6] = 786-O, medium dose (50 mg/kg in method) i.g. 30 days
# [7] = TPC-1, high dose (100 mg/kg in method) i.g. 30 days
# [8] = TPC-1, low dose (25 mg/kg in method) i.g. 30 days
# [9] = TPC-1, medium dose (50 mg/kg in method) i.g. 30 days
smiles,measurement,setting,value
"O=P1(N(CCCl)CCCl)NCCCO1 (centres unmarked) [Cyclophosphamide, cyclophosphamide, reference compound]",Inhibition Rate (%),"[1]; 786-O nude mice, 30 mg/kg",70.51%
same,Relative Tumor Proliferation Rate (T/C),"[1]; 786-O nude mice, 30 mg/kg",37.41%
same,Relative Tumor Volume (RTV),"[1]; 786-O nude mice, 30 mg/kg",6.76 ± 0.79
same,Tumor Weight,"[1]; 786-O nude mice, 30 mg/kg",0.63 ± 0.04 g
same,Body Weight (g) (d1),"[1]; 786-O nude mice, 30 mg/kg, d1",21.58 ± 0.81 g
same,Tumor Volume (mm3) (d 1),"[1]; 786-O nude mice, 30 mg/kg, d1",108.64 ± 14.40 mm3
same,Body Weight (g) (d30),"[1]; 786-O nude mice, 30 mg/kg, d30",19.42 ± 0.67 g
same,Tumor Volume (mm3) (d30),"[1]; 786-O nude mice, 30 mg/kg, d30",734.23 ± 24.66 mm3
same,Inhibition Rate (%),[2]; dose 30 mg/kg,71.29%
same,Relative Tumor Proliferation Rate (T/C),[2]; dose 30 mg/kg,37.40%
same,Relative Tumor Volume (RTV),[2]; dose 30 mg/kg,6.16 ± 2.29
same,Tumor Weight,[2]; dose 30 mg/kg,0.69 ± 0.37 g
same,Body Weight (g) (d1),"[2]; dose 30 mg/kg, d 1",21.56 ± 1.54 g
same,Tumor Volume (mm3) (d 1),"[2]; dose 30 mg/kg, d 1",117.10 ± 4.88 mm3
same,Body Weight (g) (d30),"[2]; dose 30 mg/kg, d 30",19.16 ± 1.75 g
same,Tumor Volume (mm3) (d30),"[2]; dose 30 mg/kg, d 30",724.64 ± 285.14 mm3
same,spleen index compared with the control group,"[3]; Lewis tumor-bearing mice, cyclophosphamide, P<0.01",significantly lower
same,Spleen Index (%),[3]; dose 26 mg/kg,0.48 ± 0.09 %
same,Thymus Index (%),[3]; dose 26 mg/kg,0.06 ± 0.02 %
"CO[C@@H]1[C@@H](O[C@@H]2O[C@H](C)[C@@H](O[C@H]3C[C@@](C)(O)[C@@H](OC(=O)CC(C)C)[C@H](C)O3)[C@H](N(C)C)[C@H]2O)[C@@H](CC=O)C[C@@H](C)[C@@H](O[C@H]2CC[C@H](N(C)C)[C@@H](C)O2)/C=C/C=C/C[C@@H](C)OC(=O)C[C@H]1O [Isovaleryl spiramycin I, isovaleryl spiramycin I]",Inhibition Rate (%),"[1]; 786-O nude mice, 25 mg/kg",34.70%
same,Relative Tumor Proliferation Rate (T/C),"[1]; 786-O nude mice, 25 mg/kg",37.88%
same,Relative Tumor Volume (RTV),"[1]; 786-O nude mice, 25 mg/kg",6.99 ± 0.83
same,Tumor Weight,"[1]; 786-O nude mice, 25 mg/kg",1.40 ± 0.40 g
same,Tumor Volume (mm3) (d 1),"[1]; 786-O nude mice, 25 mg/kg, d1",96.85 ± 9.98 mm3
same,Tumor Volume (mm3) (d30),"[1]; 786-O nude mice, 25 mg/kg, d30",677.21 ± 58.76 mm3
same,Inhibition Rate (%),"[1]; 786-O nude mice, 50 mg/kg",39.22%
same,Relative Tumor Proliferation Rate (T/C),"[1]; 786-O nude mice, 50 mg/kg",37.19%
same,Relative Tumor Volume (RTV),"[1]; 786-O nude mice, 50 mg/kg",6.86 ± 1.01
same,Tumor Weight,"[1]; 786-O nude mice, 50 mg/kg",1.31 ± 0.35 g
same,Tumor Volume (mm3) (d 1),"[1]; 786-O nude mice, 50 mg/kg, d1",96.82 ± 8.52 mm3
same,Tumor Volume (mm3) (d30),"[1]; 786-O nude mice, 50 mg/kg, d30",664.44 ± 73.49 mm3
same,Inhibition Rate (%),"[1]; 786-O nude mice, 100 mg/kg",64.36%
same,Relative Tumor Proliferation Rate (T/C),"[1]; 786-O nude mice, 100 mg/kg",36.87%
same,Relative Tumor Volume (RTV),"[1]; 786-O nude mice, 100 mg/kg",6.81 ± 0.31
same,Tumor Weight,"[1]; 786-O nude mice, 100 mg/kg",0.76 ± 0.13 g
same,Tumor Volume (mm3) (d 1),"[1]; 786-O nude mice, 100 mg/kg, d1",103.25 ± 9.71 mm3
same,Tumor Volume (mm3) (d30),"[1]; 786-O nude mice, 100 mg/kg, d30",702.74 ± 37.66 mm3
same,Relative Tumor Proliferation Rate (T/C),[1]; [4],36.89%
same,tumor growth inhibition rate,[1]; [4],64.36%
same,Relative Tumor Proliferation Rate (T/C),[1]; [5],37.88%
same,tumor growth inhibition rate,[1]; [5],34.70%
same,tumor volume and relative tumor volume compared with the model group,"[1]; 786-O, low, medium and high doses, P<0.05",significantly lower
same,Relative Tumor Proliferation Rate (T/C),[1]; [6],37.19%
same,tumor growth inhibition rate,[1]; [6],39.22%
same,mouse weight compared with the model group,"[1]; mouse, in vivo",no significant changes
same,Body Weight (g) (d1),"[1]; mouse, in vivo, 25 mg/kg",21.87 ± 0.89 g
same,Body Weight (g) (d30),"[1]; mouse, in vivo, 25 mg/kg",22.95 ± 0.88 g
same,Body Weight (g) (d1),"[1]; mouse, in vivo, 50 mg/kg",22.00 ± 0.94 g
same,Body Weight (g) (d30),"[1]; mouse, in vivo, 50 mg/kg",22.82 ± 0.64 g
same,Body Weight (g) (d1),"[1]; mouse, in vivo, 100 mg/kg",21.88 ± 0.54 g
same,Body Weight (g) (d30),"[1]; mouse, in vivo, 100 mg/kg",23.00 ± 0.67 g
same,Relative Tumor Proliferation Rate (T/C),[2]; [7],28.11%
same,tumor growth inhibition rate,[2]; [7],67.49%
same,Relative Tumor Proliferation Rate (T/C),[2]; [8],65.45%
same,tumor growth inhibition rate,[2]; [8],23.88%
same,tumor volume and relative tumor volume compared with the model group,"[2]; TPC-1, low, medium and high doses, P<0.05",significantly lower
same,Relative Tumor Proliferation Rate (T/C),[2]; [9],43.43%
same,tumor growth inhibition rate,[2]; [9],57.28%
same,Inhibition Rate (%),[2]; dose 25 mg/kg,23.88%
same,Relative Tumor Proliferation Rate (T/C),[2]; dose 25 mg/kg,65.45%
same,Relative Tumor Volume (RTV),[2]; dose 25 mg/kg,10.77 ± 2.47
same,Tumor Weight,[2]; dose 25 mg/kg,1.84 ± 0.25 g
same,Tumor Volume (mm3) (d 1),"[2]; dose 25 mg/kg, d 1",115.05 ± 9.93 mm3
same,Tumor Volume (mm3) (d30),"[2]; dose 25 mg/kg, d 30",1249.28 ± 337.45 mm3
same,Inhibition Rate (%),[2]; dose 50 mg/kg,57.28%
same,Relative Tumor Proliferation Rate (T/C),[2]; dose 50 mg/kg,43.43%
same,Relative Tumor Volume (RTV),[2]; dose 50 mg/kg,7.15 ± 3.19
same,Tumor Weight,[2]; dose 50 mg/kg,1.03 ± 0.44 g
same,Tumor Volume (mm3) (d 1),"[2]; dose 50 mg/kg, d 1",119.45 ± 4.30 mm3
same,Tumor Volume (mm3) (d30),"[2]; dose 50 mg/kg, d 30",847.07 ± 356.87 mm3
same,Inhibition Rate (%),[2]; dose 100 mg/kg,67.49%
same,Relative Tumor Proliferation Rate (T/C),[2]; dose 100 mg/kg,28.11%
same,Relative Tumor Volume (RTV),[2]; dose 100 mg/kg,4.63 ± 3.34
same,Tumor Weight,[2]; dose 100 mg/kg,0.79 ± 0.43 g
same,Tumor Volume (mm3) (d 1),"[2]; dose 100 mg/kg, d 1",112.69 ± 11.49 mm3
same,Tumor Volume (mm3) (d30),"[2]; dose 100 mg/kg, d 30",490.15 ± 322.14 mm3
same,mouse weight compared with the model group,"[2]; mouse, in vivo",no significant changes
same,Body Weight (g) (d1),"[2]; mouse, in vivo, 25 mg/kg",21.75 ± 1.23 g
same,Body Weight (g) (d30),"[2]; mouse, in vivo, 25 mg/kg",24.41 ± 1.32 g
same,Body Weight (g) (d1),"[2]; mouse, in vivo, 50 mg/kg",21.53 ± 1.43 g
same,Body Weight (g) (d30),"[2]; mouse, in vivo, 50 mg/kg",25.77 ± 1.10 g
same,Body Weight (g) (d1),"[2]; mouse, in vivo, 100 mg/kg",21.76 ± 1.08 g
same,Body Weight (g) (d30),"[2]; mouse, in vivo, 100 mg/kg",24.12 ± 1.20 g
same,Spleen Index (%),[3]; dose 13 mg/kg,0.72 ± 0.21%
same,Thymus Index (%),[3]; dose 13 mg/kg,0.12 ± 0.03%
same,Spleen Index (%),[3]; dose 26 mg/kg,0.62 ± 0.15%
same,Thymus Index (%),[3]; dose 26 mg/kg,0.13 ± 0.04%
same,Spleen Index (%),[3]; dose 52 mg/kg,0.77 ± 0.14 %
same,Thymus Index (%),[3]; dose 52 mg/kg,0.12 ± 0.06%
